Laboratory results from US8470810B2, “Heterocyclic compounds suitable for treating disorders that respond to modulation of the dopamine D3 receptor” (Abbott GmbH & Co. KG, priority 2004, dated 2013).
Counter-ions that a name gives are not always drawn.

Experiments:
[1] = target: T1, human dopamine D3 receptors (Homo sapiens, UniProt P35462); assay: Dopamine D3 receptor binding, displacement of [125I]-iodosulpride; conditions: for Ki: membranes of HEK-293 cells stably expressing human D3, 0.1 nM [125I]-iodosulpride, 25° C., 60 minutes; for Ki(D2)*/Ki(D3)*: selectivity ratio of the receptor binding constants D2 over D3
T1 construct: expressed in transfected cells
In short: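 Displacement of [125I]-iodosulpride at human D3 receptors in pH 7.4 Tris buffer with NaCl, KCl, CaCl2, MgCl2, 0.1% BSA, 10 μM quinolone and 0.1% ascorbic acid, 60 min at 25 °C, in triplicate. Bound label collected by filtration and counted; Ki from nonlinear regression of inhibition curves.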

[2] = target: T2, human dopamine D2L receptors (long isoform) (Homo sapiens, UniProt P14416); assay: Dopamine D2L receptor binding, displacement of [125I] iodospiperone; conditions: membranes of HEK-293 cells stably expressing human D2L; 0.01 nM [125I] iodospiperone; 25° C., 60 minutes; read-out: Ki(D2)*
T2 construct: expressed in transfected cells
In short: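 Displacement of [125I]iodospiperone from human D2L receptors, triplicates, in 50 mM Tris pH 7.4 with 120 mM NaCl, 5 mM KCl, 2 mM CaCl2, 2 mM MgCl2, 0.1% BSA. Incubated 60 min at 25 °C, then filtered and counted by scintillation. Ki came from iterative nonlinear regression of inhibition curves.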

T1 sequence (P35462 whole entry): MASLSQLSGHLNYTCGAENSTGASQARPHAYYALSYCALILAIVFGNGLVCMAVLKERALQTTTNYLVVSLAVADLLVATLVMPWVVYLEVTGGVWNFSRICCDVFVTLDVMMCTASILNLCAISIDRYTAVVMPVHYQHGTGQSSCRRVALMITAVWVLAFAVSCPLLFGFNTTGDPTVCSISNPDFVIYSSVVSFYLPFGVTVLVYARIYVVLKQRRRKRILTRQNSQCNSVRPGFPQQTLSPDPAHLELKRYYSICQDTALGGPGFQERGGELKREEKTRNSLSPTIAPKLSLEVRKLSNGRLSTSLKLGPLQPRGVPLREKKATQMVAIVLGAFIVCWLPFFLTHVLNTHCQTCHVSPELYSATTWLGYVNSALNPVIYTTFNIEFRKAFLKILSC
T2 sequence (P14416 whole entry, canonical isoform): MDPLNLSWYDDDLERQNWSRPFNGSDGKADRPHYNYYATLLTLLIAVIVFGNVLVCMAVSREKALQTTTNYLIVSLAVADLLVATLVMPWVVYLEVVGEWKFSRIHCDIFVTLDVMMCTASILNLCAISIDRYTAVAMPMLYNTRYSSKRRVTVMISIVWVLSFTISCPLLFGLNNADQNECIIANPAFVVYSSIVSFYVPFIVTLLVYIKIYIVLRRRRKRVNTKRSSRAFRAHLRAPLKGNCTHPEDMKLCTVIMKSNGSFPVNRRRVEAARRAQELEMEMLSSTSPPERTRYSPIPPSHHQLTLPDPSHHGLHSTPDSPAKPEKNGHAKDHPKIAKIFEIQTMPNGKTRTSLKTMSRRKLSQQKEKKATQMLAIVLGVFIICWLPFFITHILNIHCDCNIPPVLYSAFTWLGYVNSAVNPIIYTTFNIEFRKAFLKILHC

Compound | Ki [1] [nM] | Ki(D2)*/Ki(D3)* [1] | Ki [2] [nM]
CCCN1CC[C@@H](c2ccc(NS(=O)(=O)c3ccc(Br)s3)cc2)C1.Cl [Example 28, 5-Bromo-thiophene-2-sulfonic acid [4-((S)-1-propyl-pyrrolidin-3-yl)-phenyl]-amide hydrochloride] | 3.3 | 41 | 133
CCCN1CC[C@@H](c2ccc(NS(=O)(=O)c3ccc(C)cc3)cc2)C1.Cl [Example 10, 4-Methyl-N-[4-((S)-1-propyl-pyrrolidin-3-yl)-phenyl]-benzenesulfonamide hydrochloride] | 1.9 | 60 | 111
CCCN1CC[C@@H](c2ccc(NS(=O)(=O)c3ccc(C4CCCC4)cc3)cc2)C1 [Example 37, 4-Cyclopentyl-N-[4-(S)-1-propyl-pyrrolidin-3-yl)-phenyl]-benzenesulfonamide hydrochloride] | 0.15 | 22 | 3.25
CCCN1CC[C@@H](c2ccc(NS(=O)(=O)c3ccc(Cl)cc3)cc2)C1 [Example 13, 4-Chloro-N-[4-((S)-1-propyl-pyrrolidin-3-yl)-phenyl]-benzenesulfonamide] | 3.1 | 54 | 168
CCCN1CC[C@@H](c2ccc(NS(=O)(=O)c3ccc(Cl)s3)cc2)C1 [Example 105, 5-Chloro-thiophene-2-sulfonic acid [4-((S)-1-propyl-pyrrolidin-3-yl)-phenyl]-amide] | 6.1 | 51 | 309
CCCN1CCC(c2ccc(NS(=O)(=O)c3ccc(C(C)C)cc3)cn2)C1 (stereo not drawn) [Example 31, N-[6-(1-propyl-pyrrolidin-3-yl)-pyridin-3-yl]-4-isopropyl-benzene-sulfonamide] | 10.8 | 24 | 257
CCCN1CC[C@@H](c2ccc(NS(=O)(=O)c3cc4ccccc4o3)cc2)C1 [Example 79, Benzofuran-2-sulfonic acid [4-((S)-1-propyl-pyrrolidin-3-yl)-phenyl]-amide] | 13.5 | 82 | 1110
CCN1CC[C@@H](c2ccc(NS(=O)(=O)c3ccc(OC(F)(F)F)cc3)cc2)C1 [Example 104, N-[4-((S)-1-Ethyl-pyrrolidin-3-yl)-phenyl]-4-trifluoromethoxy-benzenesulfonamide] | 8.3 | 43 | 352
C=CCN1CC[C@@H](c2ccc(NS(=O)(=O)c3ccc(CCCF)cc3)cc2)C1 [Example 107, N-[4-((S)-1-Allyl-pyrrolidin-3-yl)-phenyl]-4-(3-fluoro-propyl)-benzene sulfonamide] | 0.42 | 108 | 45.8
CCCN1CC(c2ccc(NS(=O)(=O)c3ccc(OC(F)(F)F)cc3)cc2)C1 [Example 49, N-[4-(1-Propyl-azetidin-3-yl)-phenyl]-4-trifluoromethoxybenzene sulfonamide] | 46 | 39 | 1810
CCCN1CC[C@@H](c2ccc(NS(=O)(=O)c3ccc(N4CCCC4)cc3)cc2)C1 [Example 67, N-[4-((S)-1-Propyl-pyrrolidin-3-yl)-phenyl]-4-pyrrolidin-1-yl-benzenesulfonamide] | 0.35 | 11 | 3.88
CCCN1CC[C@@H](c2ccc(NS(=O)(=O)c3ccc(C(CF)CF)cc3)cc2)C1 [Example 95, 4-(2-Fluoro-1-fluoromethyl-ethyl)-N-[4-((S)-1-propyl-pyrrolidin-3-yl)-phenyl]-benzenesulfonamide] | 1.3 | 22 | 27.9
N-[4-((S)-1-Propyl-pyrrolidin-3-yl)-phenyl]-4-pyrrol-1-yl-benzenesulfonamide [Example 74] | 0.69 | 15 | 10.5
CCCN1CC[C@@H](c2ccc(NS(=O)(=O)c3ccc(SC(F)(F)F)cc3)cc2)C1 [Example 68, N-[4-((S)-1-Propyl-pyrrolidin-3-yl)-phenyl]-4-trifluoromethylsulfanyl-benzenesulfonamide] | 3 | 47 | 142
CCCN1CC(c2ccc(NS(=O)(=O)c3ccc([C@H](C)CF)cc3)cc2)C1 [Example 60, 4-((S)-2-Fluoro-1-methyl-ethyl)-N-[4-(1-propyl-azetidin-3-yl)-phenyl]-benzenesulfonamide] | 7.63 | 1019 | 7780
C=Cc1ccc(S(=O)(=O)Nc2ccc([C@@H]3CCN(CCC)C3)cc2)cc1 [Example 123, N-[4-((S)-1-Propyl-pyrrolidin-3-yl)-phenyl]-4-vinyl-benzenesulfonamide] | 0.45 | 91 | 41

Compound | Ki [1] [nM] | Ki(D2)*/Ki(D3)* [1] | Ki [2] [nM]
CN1CC[C@@H](c2ccc(NS(=O)(=O)c3ccc(OC(F)(F)F)cc3)cc2)C1 [Example 111, N-[4-((S)-1-Methyl-pyrrolidin-3-yl)-phenyl]-4-trifluoromethoxy-benzenesulfonamide] | 16.4 | 44 | 723
C=CCN1CC[C@H](c2ccc(NS(=O)(=O)c3ccc(C(C)C)cc3)cc2)C1.Cl [Example 4, 4-(Isopropyl)-N-[4-((R)-1-allyl-pyrrolidin-3-yl)-phenyl]-benzenesulfonamide hydrochloride] | 3.16 | 127 | 403
C=C(C)c1ccc(S(=O)(=O)Nc2ccc([C@@H]3CCN(CCC)C3)cc2)c(F)c1 [Example 19, 2-Fluoro-4-isopropenyl-N-[4-((S)-1-propyl-pyrrolidin-3-yl)-phenyl]-benzenesulfonamide] | 0.48 | 26 | 12.6
CCCN1CC[C@@H](c2ccc(NS(=O)(=O)c3ccc(N4CCOCC4)cc3)cc2)C1.Cl [Example 120, 4-Morpholin-4-yl-N-[4-((S)-1-propyl-pyrrolidin-3-yl)-phenyl]-benzenesulfonamide hydrochloride] | 2 | 86 | 174
CCCN1CC[C@@H](c2ccc(NS(=O)(=O)c3ccc(-c4cnco4)cc3)cc2)C1 [Example 70, 4-Oxazol-5-yl-N-[4-((S)-1-propyl-pyrrolidin-3-yl)-phenyl]-benzenesulfonamide] | 0.84 | 44 | 37.3
CCCN1CCC(c2ccc(NS(=O)(=O)c3ccc(C(C)C)cc3)cn2)C1 (single isomer, unassigned; (-)) [Example 131, (−)-N-[6-(1-Propyl-pyrrolidin-3-yl)-pyridin-3-yl]-4-isopropyl-benzene-sulfonamide] | 5.8 | 74 | 430
CCCN1CC[C@@H](c2ccc(NS(=O)(=O)c3ccc(CCCF)cc3)cc2)C1 [Example 92, 4-(3-Fluoro-propyl)-N-[4-((S)-1-propyl-pyrrolidin-3-yl)-phenyl]-benzenesulfonamide] | 0.61 | 28 | 17.3
CCCc1ccc(S(=O)(=O)Nc2ccc([C@@H]3CCN(CCC)C3)cc2)s1 [Example 89, 5-Propyl-thiophene-2-sulfonic acid [4-((S)-1-propyl-pyrrolidin-3-yl)-phenyl]-amide] | 0.6 | 45 | 27
CCCN1CC[C@@H](c2ccc(NS(=O)(=O)c3ccc(O)cc3)cc2)C1 [Example 122, 4-Hydroxy-N-[4-((S)-1-propyl-pyrrolidin-3-yl)-phenyl]-benzenesulfonamide] | 43.9 | 31 | 1340
CCCN1CC[C@@H](c2ccc(NS(=O)(=O)c3ccc(N4CCCC4=O)cc3)cc2)C1 [Example 72, 4-(2-Oxo-pyrrolidin-1-yl)-N-[4-((S)-1-propyl-pyrrolidin-3-yl)-Phenyl]-benzenesulfonamide] | 35.1 | 13 | 473
CCCN1CC[C@@H](c2ccc(NS(=O)(=O)c3ccc(-c4cnco4)s3)cc2)C1 [Example 82, 5-Oxazol-5-yl-thiophene-2-sulfonic acid [4-((S)-1-propyl-pyrrolidin-3-yl)-phenyl]-amide] | 5.59 | 78 | 437
CC(C)c1ccc(S(=O)(=O)Nc2ccc(C3CCN(Cc4ccccc4)C3)c(F)c2)cc1 (stereo not drawn) [Example 128, N-[4-(1-Benzyl-pyrrolidin-3-yl)-3-fluoro-phenyl]-4-isopropyl-benzenesulfonamide] | 2.7 | 5 | 12.9
CCCN1CC[C@@H](c2ccc(NS(=O)(=O)c3ccc(F)cc3)cc2)C1.Cl [Example 125, 4-Fluoro-N-[4-((S)-1-propyl-pyrrolidin-3-yl)-phenyl]-benzenesulfonamide hydrochloride] | 19.5 | 67 | 1300
CCCN1CC[C@@H](c2ccc(NS(=O)(=O)c3ccc4c(c3)CCC4)cc2)C1.Cl [Example 24, Indan-5-sulfonic acid [4-((S)-1-propyl-pyrrolidin-3-yl)-phenyl]-amide hydrochloride] | 1.2 | 60 | 72
CCCN1CC(c2ccc(NS(=O)(=O)c3ccc(CCCF)cc3)cc2)C1 [Example 57, 4-(3-Fluoro-propyl)-N-[4-(1-propyl-azetidin-3-yl)-phenyl]-benzenesulfonamide] | 7.18 | 123 | 880
